From PubChem BioAssay (NCI)
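96-well plates; 48 h exposure; 5 concentrations. Endpoints by linear interpolation between flanking doses. Not reached: highest tested concentration assigned. The concentration for 50% growth inhibition is given as GI50. The concentration for full growth arrest is given as TGI.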

Assays:
Assay in all cases: inhibition of tumour cell growth, NCI panel, 48 h
786-0 renal = test system: 786-0 renal
A498 renal = test system: A498 renal
A549 NSCLC = test system: A549 NSCLC
ACHN renal = test system: ACHN renal
BT-549 breast = test system: BT-549 breast
CAKI-1 renal = test system: CAKI-1 renal
CCRF-CEM leukemia = test system: CCRF-CEM leukemia
COLO 205 colon = test system: COLO 205 colon
DU-145 prostate = test system: DU-145 prostate
EKVX NSCLC = test system: EKVX NSCLC
HCC-2998 colon = test system: HCC-2998 colon
HCT-116 colon = test system: HCT-116 colon
HCT-15 colon = test system: HCT-15 colon
HL-60(TB) leukemia = test system: HL-60(TB) leukemia
HOP-62 NSCLC = test system: HOP-62 NSCLC
HOP-92 NSCLC = test system: HOP-92 NSCLC
HS 578T breast = test system: HS 578T breast
HT29 colon = test system: HT29 colon
IGROV1 ovarian = test system: IGROV1 ovarian
K-562 leukemia = test system: K-562 leukemia
KM12 colon = test system: KM12 colon
LOX IMVI melanoma = test system: LOX IMVI melanoma
M14 melanoma = test system: M14 melanoma
MALME-3M melanoma = test system: MALME-3M melanoma
MCF7 breast = test system: MCF7 breast
MDA-MB-231 breast = test system: MDA-MB-231 breast
MDA-MB-435 = test system: MDA-MB-435
MOLT-4 leukemia = test system: MOLT-4 leukemia
NCI-H226 lung = test system: NCI-H226 lung
NCI-H23 lung = test system: NCI-H23 lung
NCI-H460 lung = test system: NCI-H460 lung
NCI-H522 lung = test system: NCI-H522 lung
NCI/ADR-RES ovarian = test system: NCI/ADR-RES ovarian
OVCAR-3 ovarian = test system: OVCAR-3 ovarian
OVCAR-4 ovarian = test system: OVCAR-4 ovarian
OVCAR-5 ovarian = test system: OVCAR-5 ovarian
OVCAR-8 ovarian = test system: OVCAR-8 ovarian
PC-3 prostate = test system: PC-3 prostate
RPMI-8226 leukemia = test system: RPMI-8226 leukemia
RXF 393 renal = test system: RXF 393 renal
SF-268 CNS = test system: SF-268 CNS
SF-295 CNS = test system: SF-295 CNS
SF-539 CNS = test system: SF-539 CNS
SK-MEL-2 melanoma = test system: SK-MEL-2 melanoma
SK-MEL-28 melanoma = test system: SK-MEL-28 melanoma
SK-MEL-5 melanoma = test system: SK-MEL-5 melanoma
SK-OV-3 ovarian = test system: SK-OV-3 ovarian
SN12C renal = test system: SN12C renal
SNB-19 CNS = test system: SNB-19 CNS
SNB-75 CNS = test system: SNB-75 CNS
SW-620 colon = test system: SW-620 colon
T-47D breast = test system: T-47D breast
TK-10 renal = test system: TK-10 renal
U251 CNS = test system: U251 CNS
UACC-257 melanoma = test system: UACC-257 melanoma
UACC-62 melanoma = test system: UACC-62 melanoma
UO-31 renal = test system: UO-31 renal

Structure (SMILES): COc1cc(/C=C/C(=O)c2cc(OC)c(OC)c(OC)c2)ccc1OCc1ccccc1
- GI50 (786-0 renal): 4.71 µM
- TGI (786-0 renal): > 100 µM
- GI50 (A498 renal): 15.8 µM
- TGI (A498 renal): 58.9 µM
- GI50 (A549 NSCLC): 2.77 µM
- TGI (A549 NSCLC): > 100 µM
- GI50 (ACHN renal): 2.16 µM
- TGI (ACHN renal): 5.75 µM
- GI50 (BT-549 breast): 1.83 µM
- TGI (BT-549 breast): 3.9 µM
- GI50 (CAKI-1 renal): 4.11 µM
- TGI (CAKI-1 renal): > 100 µM
- GI50 (CCRF-CEM leukemia): 3 µM
- TGI (CCRF-CEM leukemia): > 100 µM
- GI50 (COLO 205 colon): 3.34 µM
- TGI (COLO 205 colon): 26.2 µM
- GI50 (DU-145 prostate): 3.55 µM
- TGI (DU-145 prostate): > 100 µM
- GI50 (EKVX NSCLC): 4.33 µM
- TGI (EKVX NSCLC): 51.6 µM
- GI50 (HCC-2998 colon): 2.8 µM
- TGI (HCC-2998 colon): 7.91 µM
- GI50 (HCT-116 colon): 2.73 µM
- TGI (HCT-116 colon): > 100 µM
- GI50 (HCT-15 colon): 1.75 µM
- TGI (HCT-15 colon): 5.28 µM
- GI50 (HL-60(TB) leukemia): 2.14 µM
- TGI (HL-60(TB) leukemia): 7.61 µM
- GI50 (HOP-62 NSCLC): 3.49 µM
- TGI (HOP-62 NSCLC): 43.4 µM
- GI50 (HOP-92 NSCLC): 1.88 µM
- TGI (HOP-92 NSCLC): 7.57 µM
- GI50 (HS 578T breast): 4.06 µM
- TGI (HS 578T breast): > 100 µM
- GI50 (HT29 colon): 2.66 µM
- TGI (HT29 colon): > 100 µM
- GI50 (IGROV1 ovarian): 3.06 µM
- TGI (IGROV1 ovarian): > 100 µM
- GI50 (K-562 leukemia): 2.59 µM
- TGI (K-562 leukemia): > 100 µM
- GI50 (KM12 colon): 3.6 µM
- TGI (KM12 colon): > 100 µM
- GI50 (LOX IMVI melanoma): 1.69 µM
- TGI (LOX IMVI melanoma): 4.09 µM
- GI50 (M14 melanoma): 4.77 µM
- TGI (M14 melanoma): > 100 µM
- GI50 (MALME-3M melanoma): 5.08 µM
- TGI (MALME-3M melanoma): > 100 µM
- GI50 (MCF7 breast): 2.53 µM
- TGI (MCF7 breast): > 100 µM
- GI50 (MDA-MB-231 breast): 2.83 µM
- TGI (MDA-MB-231 breast): > 100 µM
- GI50 (MDA-MB-435): 3.2 µM
- TGI (MDA-MB-435): > 100 µM
- GI50 (MOLT-4 leukemia): 3.01 µM
- TGI (MOLT-4 leukemia): 73.4 µM
- GI50 (NCI-H226 lung): 4.16 µM
- TGI (NCI-H226 lung): > 100 µM
- GI50 (NCI-H23 lung): 2.37 µM
- TGI (NCI-H23 lung): 7.23 µM
- GI50 (NCI-H460 lung): 2.33 µM
- TGI (NCI-H460 lung): 6.16 µM
- GI50 (NCI-H522 lung): 1.45 µM
- TGI (NCI-H522 lung): 3.43 µM
- GI50 (NCI/ADR-RES ovarian): 2.82 µM
- TGI (NCI/ADR-RES ovarian): 9.4 µM
- GI50 (OVCAR-3 ovarian): 3.75 µM
- TGI (OVCAR-3 ovarian): > 100 µM
- GI50 (OVCAR-4 ovarian): 2.84 µM
- TGI (OVCAR-4 ovarian): > 100 µM
- GI50 (OVCAR-5 ovarian): 2.67 µM
- TGI (OVCAR-5 ovarian): 13.7 µM
- GI50 (OVCAR-8 ovarian): 2.16 µM
- TGI (OVCAR-8 ovarian): 5.8 µM
- GI50 (PC-3 prostate): 3.16 µM
- TGI (PC-3 prostate): > 100 µM
- GI50 (RPMI-8226 leukemia): 1.9 µM
- TGI (RPMI-8226 leukemia): > 100 µM
- GI50 (RXF 393 renal): 2.18 µM
- TGI (RXF 393 renal): 6.07 µM
- GI50 (SF-268 CNS): 3.65 µM
- TGI (SF-268 CNS): > 100 µM
- GI50 (SF-295 CNS): 3.16 µM
- TGI (SF-295 CNS): > 100 µM
- GI50 (SF-539 CNS): 2.04 µM
- TGI (SF-539 CNS): 4.28 µM
- GI50 (SK-MEL-2 melanoma): 3.7 µM
- TGI (SK-MEL-2 melanoma): 25.3 µM
- GI50 (SK-MEL-28 melanoma): 3.79 µM
- TGI (SK-MEL-28 melanoma): 30.6 µM
- GI50 (SK-MEL-5 melanoma): 2.65 µM
- TGI (SK-MEL-5 melanoma): 11.1 µM
- GI50 (SK-OV-3 ovarian): 4.2 µM
- TGI (SK-OV-3 ovarian): > 100 µM
- GI50 (SN12C renal): 1.94 µM
- TGI (SN12C renal): 6.59 µM
- GI50 (SNB-19 CNS): 2.64 µM
- TGI (SNB-19 CNS): 8.69 µM
- GI50 (SNB-75 CNS): 1.7 µM
- TGI (SNB-75 CNS): 3.62 µM
- GI50 (SW-620 colon): 3.61 µM
- TGI (SW-620 colon): > 100 µM
- GI50 (T-47D breast): 2.96 µM
- TGI (T-47D breast): > 100 µM
- GI50 (TK-10 renal): 4.97 µM
- TGI (TK-10 renal): > 100 µM
- GI50 (U251 CNS): 2.36 µM
- TGI (U251 CNS): 7.5 µM
- GI50 (UACC-257 melanoma): 3.29 µM
- TGI (UACC-257 melanoma): 68.9 µM
- GI50 (UACC-62 melanoma): 1.82 µM
- TGI (UACC-62 melanoma): 4.51 µM
- GI50 (UO-31 renal): 2.2 µM
- TGI (UO-31 renal): > 100 µM
